Source: patent US9833446B2, “Hedgehog pathway inhibition for cartilage tumor and metachondromatosis treatment” (Rhode Island Hospital, priority 2012, dated 2017)
“Also recorded” adds a separate entry of the source.

Legend:
Hedgehog pathway = test: qPCR of epiphyseal cartilage after oral Smoothened inhibitor in wild type mice; assay type: in vivo; conditions: oral administration for 1 week, n=3, p<0.05
Description: FIG. 8a is a series of charts showing number and size of exostoses in Ctsk-KO mice post-treatment (n=5) with vehicle or Smoothened inhibitor (SMOi). […] FIG. 8b is a bar graph of qPCR results showing that oral administration of the Smoothened inhibitor SMOi to wild type mice for 1 week blunts the expression of Col2α1, Col10α1, Mmp13 and Gli1 in epiphyseal cartilage (n=3, *p<0.05, student t test).
(§1) Quantitative RT-PCR. RNA was extracted from cultured cells or cartilage lesions captured by laser dissection by using the RNeasy kit (Qiagen). cDNA was synthesized using iScript™cDNA Synthesis Kit (Bio-Rad) and q-PCR was performed by using the RT2SYBR®Green qPCR kit. All values were normalized to Gapdh levels, and qPCR data are expressed as fold-increases compared with controls.

Ctsk-KO mice = test: Smoothened inhibitor treatment of Ctsk-KO mice (metachondromatosis model), X-ray, μ-CT and histology; assay type: in vivo; conditions: for number of exostoses / size of exostoses: vs vehicle; for cartilage tumor condition / disease process in Shp2 mutant mice: systemic administration
Description: (§2) FIG. 4a, Left panel, is a bar graph of qPCR results showing increased Col2α1, Col10α1, Ihh, and Pthrp expression in laser-captured cartilaginous cells from exostoses, compared with normal articular cartilage cells (n=4, *p<0.05, Student t test). FIG. 4a, Right panel, is a series of photomicrographs showing immunostaining of paraffin sections from Perichondrial Groove of Ranvier region of Ctsk-KO and Control mice. Note the decreased number of p-Erk+ cells, but increased Ihh expression in Ctsk-KO, compared with Control, mice. FIG. 4b, Left Panel, is a photograph of an immunoblot showing Shp2 levels in ATDC5 chondroprogenitor cell lines stably expressing shRNAs against murine Ptpn11 (ATDC5-KD1, ATDC5-KD2, respectively) or a scrambled control hairpin. […] FIG. 4c is a bar graph showing that FGFR (PD173074, 10 nM) or MEK (UO126, 1 μM) inhibitor treatment of parental ATDC5 cells enhances Ihh and Pthrp expression, as shown by q-PCR (n=3, *p<0.05, Student t test). […] Images of representative posterior paws (i-iv) and knese (v-vii) taken pre-treatment (i, iii, v, vii) and post-treatment with vehicle (ii, vi) or Smoothened inhibitor (SMOi) (iv, viii) for 4 weeks. Note continued development of exostoses and endochromas in Vehicle-treated mice, and their amelioration in SMOi-treated group (arrows). Also, see FIGS. 7a,b and 8a,b.
All animals used for these experiments are shown. […] SMOi was administered by oral gavage to Ctsk-KO mice beginning at post-natal week 5 for four weeks, and mice were euthanized at week 9.
Microcomputed Tomography (μ-CT) and x-Ray Analysis. X-ray images of the entire skeleton, knees, metatarsals and phalanges were obtained immediately after euthanasia by using a Faxitron X-ray system (Wheeling, Ill.). After fixation in 4% PFA, μ-CT images of skeletal tissues were scanned with the desktop microcomputer graphic imaging system (μ-CT40, Scanco Medical AG, CH). The number and size of exostoses were measured visually based on x-ray images.
Ihh signaling leads to Pthrp production. […] If so, then blocking or attenuating Ihh signaling might slow and/or prevent MC development. To test this hypothesis, Control (wild type) and Ctsk-KO mice (5/group) were treated with the Smoothened inhibitor PF-04449913 (100 μg/g body weight) or vehicle control (0.5% methylcellulose) by daily gavage, beginning at 5 weeks of age and continuing for the succeeding 4 weeks. The skeletal phenotype was examined by X-ray, μ-CT, and histological analysis at the end of experiment.

ATDC5 cells = test: q-PCR of Ihh and Pthrp expression in inhibitor-treated parental ATDC5 cells; assay type: cell-based, murine; conditions: PD173074 10 nM, UO126 1 μM, n=3, p<0.05
Description: as §2
Parental ATDC5 cells were purchased from the ATCC and cultured in complete DMEM/F12 medium (1:1) (Invitrogen) as described46. ATDC5 cells stably expressing short hairpin RNAs against murine Shp2 • (oligoA:5′[…] TCTGAATCTT TTTGGAAA (SEQ ID NO:1)); • Oligo B: 5-[…] (SEQ ID NO:2)) or its scrambled control were established by using pSuper(retro)/puro retroviral vector (Oligoengine, Inc) and pEcopac.
as §1
CCPs are rare, rendering detailed biochemical analyses of these cells unfeasible. We therefore tested the effects of Shp2 depletion in ATDC5 chondroid cells by stably expressing either of two shRNAs directed against murine Ptpn11. As in Ctsk-KO mice (FIG. 4a), Fgf18-evoked Erk activation was decreased, while Ihh and Pthrp levels were increased, in Shp2 deficient-ATDC5 cells, compared with cells expressing an shRNA control (FIG. 4b). Conversely, FGFR (PD173074) or MEK (UO126) inhibitor treatment of randomly growing, parental ATDC5 cells led to enhanced Ihh and Pthrp expression (FIG. 4c).

[1] = Ctsk-KO mice, 100 μg/g body weight, daily gavage, 4 weeks
[2] = Ctsk-KO mice, 100 μg/g body weight, daily gavage, 4 weeks, listed as SMOi

For CN1CC[C@@H](NC(=O)Nc2ccc(C#N)cc2)C[C@@H]1c1nc2ccccc2[nH]1 [PF-04449913], the “expression of Col2α1 in epiphyseal cartilage (qPCR)” value (Hedgehog pathway) was “blunts”, the “expression of Col10α1 in epiphyseal cartilage (qPCR)” value (Hedgehog pathway) was “blunts” and the “expression of Gli1 in epiphyseal cartilage (qPCR)” value (Hedgehog pathway) was “blunts”. For the same molecule, the “expression of Mmp13 in epiphyseal cartilage (qPCR)” value (Hedgehog pathway) was “blunts”, the “function of multiple joints” value (Ctsk-KO mice; [1]) was “improved” and the “tumor formation (Faxitron radiographs)” value (Ctsk-KO mice; Ctsk-KO mice, 100 μg/g body weight, daily gavage, 4 weeks from week 5, vs vehicle (0.5% methylcellulose)) was “ameliorates tumor formation”. For the same molecule, the number of exostoses (Ctsk-KO mice; [1]) was “significantly reduced”, the size of exostoses (Ctsk-KO mice; [1]) was “significantly reduced” and the number of exostoses (Ctsk-KO mice; [2]) was “reduction of number; also recorded: decrease in average number of exostoses”. For the same molecule, the size of exostoses (Ctsk-KO mice; [2]) was “reduction of number and size”, the “cartilage tumor condition / disease process in Shp2 mutant mice” value (Ctsk-KO mice) was “reduces the cartilage tumor condition” and the “cartilage tumor condition / disease process in Shp2 mutant mice” value (Ctsk-KO mice; listed as PF-0444993) was “can stop or slow down the disease process”.
For CCN(CC)CCCCNc1ncc2cc(-c3cc(OC)cc(OC)c3)c(NC(=O)NC(C)(C)C)nc2n1 [PD173074], the “Ihh expression (q-PCR)” value (ATDC5 cells) was “enhanced” and the “Pthrp expression (q-PCR)” value (ATDC5 cells) was “enhanced”.
N#CC(=C(/N)Sc1ccccc1N)/C(C#N)=C(/N)Sc1ccccc1N [UO126] was tested, and the “Ihh expression (q-PCR)” value (ATDC5 cells) was “enhanced” and the “Pthrp expression (q-PCR)” value (ATDC5 cells) was “enhanced”.
